Data from patent US11484575B2, “Compositions and methods comprising bone morphogenetic protein and NEMO binding peptide” (Cedars-Sinai Medical Center, priority 2018, dated 2022).

Assays:
[1] = test system: inflammatory bone destruction; settings: cited from earlier work
[2] = phase I clinical trial in dogs; cited from earlier work
NFκB = settings: without affecting the basal activity of IKK; cited from earlier work
[3] = test system: carrageenan-induced edema; settings: cited from earlier work
rat spine fusion model = assay: Manual palpation fusion, rat posterolateral spine fusion model; assay type: in vivo, Sprague Dawley rats; settings: freshly harvested spine explants, 12 weeks
Experimental: Sixteen male adult (220 to 260 g) Sprague Dawley rats were utilized to compare BMP-2 mediated spine fusion in presence and absence of NBD. […] Therefore, this concentration of BMP-2 was employed. In detail, eight rats underwent single-level posterolateral fusion in the lumber spine using BMP-2 (total dose of 30 μg/side/rat) and NBD ([…]) loaded ACS and eight rats served as positive controls (30 μg/side/rat BMP-2-loaded ACS, no NBD). Rat spines were allowed to heal and consolidate for 12 weeks. Radiographical fusion was determined via high-resolution radiographs obtained at monthly intervals postoperatively. After 12 weeks, ex vivo micro-computed tomography was performed on explanted spines to determine the structural properties of the fusion mass. For functional assessment of spinal fusion, manual palpation was performed. Finally, histological evaluation of spine fusion was performed in terms of Masson-trichrome staining (Table 1). The posterolateral intertransverse process fusion surgical procedure is described briefly. […] The condition of the rats was monitored daily. […] Fusion was determined via manual palpation of segments by two independent observers. Any motion that was detected between the L4 and L5 segment, including the transverse process or vertebral bodies, was considered to indicate a fusion failure. […]

Sequence: TALDWSWLQTE (listed as Homo sapiens) [NBD]
- inflammatory bone destruction in vivo ([1]; continuous administration): prevent
- signs of toxicity ([1]; in vivo): without showing signs of toxicity
- toxicity [2]: low toxicity
- pro-inflammatory cytokine-induced NFκB activation (NFκB): block
- paw edema in mice ([3]; 100 μg and 500 μg NBD): ameliorate
- carrageenan-induced edema formation and cellular inflammation in mouse paws ([3]; mouse, in vivo): significantly inhibit
- fusion by manual palpation (rat spine fusion model): 100%
